# PubChem BioAssay (NCI)
#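 Dose response: 5 concentrations. Exposure: 48 h. Format: 96-well plates. Endpoint: linear interpolation; highest concentration if not reached. TGI is the concentration that stops growth completely.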
# Legend:
# Assay in all cases: NCI-60 cell line screen, 48 h
# MCF7 breast = test system: MCF7 breast
# HCT-15 colon = test system: HCT-15 colon
# MDA-MB-231 breast = test system: MDA-MB-231 breast
# HS 578T breast = test system: HS 578T breast
# NCI/ADR-RES ovarian = test system: NCI/ADR-RES ovarian
# NCI-H226 lung = test system: NCI-H226 lung
# U251 CNS = test system: U251 CNS
# MALME-3M melanoma = test system: MALME-3M melanoma
# LOX IMVI melanoma = test system: LOX IMVI melanoma
# SN12C renal = test system: SN12C renal
# UO-31 renal = test system: UO-31 renal
# NCI-H522 lung = test system: NCI-H522 lung
# SW-620 colon = test system: SW-620 colon
# M14 melanoma = test system: M14 melanoma
# CCRF-CEM leukemia = test system: CCRF-CEM leukemia
# UACC-257 melanoma = test system: UACC-257 melanoma
# OVCAR-3 ovarian = test system: OVCAR-3 ovarian
# SK-OV-3 ovarian = test system: SK-OV-3 ovarian
# K-562 leukemia = test system: K-562 leukemia
# HOP-92 NSCLC = test system: HOP-92 NSCLC
SMILES,TGI (MCF7 breast) [µM],TGI (HCT-15 colon) [µM],TGI (MDA-MB-231 breast) [µM],TGI (HS 578T breast) [µM],TGI (NCI/ADR-RES ovarian) [µM],TGI (NCI-H226 lung) [µM],TGI (U251 CNS) [µM],TGI (MALME-3M melanoma) [µM],TGI (LOX IMVI melanoma) [µM],TGI (SN12C renal) [µM],TGI (UO-31 renal) [µM],TGI (NCI-H522 lung) [µM],TGI (SW-620 colon) [µM],TGI (M14 melanoma) [µM],TGI (CCRF-CEM leukemia) [µM],TGI (UACC-257 melanoma) [µM],TGI (OVCAR-3 ovarian) [µM],TGI (SK-OV-3 ovarian) [µM],TGI (K-562 leukemia) [µM],TGI (HOP-92 NSCLC) [µM]
O=C1c2ccccc2C2C1C(c1ccccc1)C1(Cc3ccccc3C1=O)C2c1ccccc1 (centres undefined),> 100,> 100,> 100,> 100,> 100,> 100,> 100,> 100,> 100,> 100,> 100,> 100,> 100,> 100,> 100,> 100,> 100,> 100,> 100,> 100
CCN(CC)C1C(=O)NC1C#Cc1ccccc1 (centres undefined),> 100,> 100,> 100,> 100,> 100,> 100,> 100,> 100,> 100,> 100,> 100,> 100,> 100,> 100,> 100,> 100,> 100,> 100,> 100,92.1
COC1(OC)C=CC2C1C1C=CC2C1(OC)OC (centres undefined),> 100,> 100,> 100,> 100,> 100,> 100,> 100,> 100,> 100,> 100,> 100,> 100,> 100,> 100,> 100,> 100,> 100,> 100,> 100,> 100
ON[C@H]1C[C@@H](n2cnc3c(NC4CC4)ncnc32)[C@H](O)[C@@H]1O,> 100,> 100,> 100,> 100,> 100,> 100,> 100,> 100,> 100,> 100,> 100,> 100,> 100,> 100,> 100,> 100,> 100,> 100,> 100,> 100
O=C1c2c(ccc3c2CCC3)CC12Cc1ccccc1C2,> 100,> 100,71.3,> 100,> 100,62.8,> 100,54,31,> 100,59.7,73.7,93.7,> 100,46.1,57.4,82.2,> 100,79.3,41
O=c1[nH]c(=O)n(C2CC(O)C(CO)O2)c2nc3ccc4cc5ccccc5cc4c3nc12 (centres undefined),> 100,> 100,> 100,> 100,> 100,> 100,> 100,> 100,> 100,> 100,> 100,> 100,> 100,> 100,> 100,> 100,> 100,> 100,> 100,> 100
Cc1ccnc2[nH]c(-c3ccc(F)cc3)cc(=O)c12,> 100,> 100,> 100,> 100,> 100,> 100,> 100,> 100,> 100,> 100,> 100,> 66.8,> 100,> 46.4,> 100,> 100,> 100,> 100,> 100,> 100
NC(=O)SCCC(N)C(=O)O (centres undefined),> 100,> 100,> 100,> 100,> 100,> 100,> 100,> 100,> 100,> 100,> 100,> 100,> 100,> 100,> 100,> 100,> 100,> 100,> 100,> 100
O=C1NNC2NC(=O)C3(NN2C1=O)c1ccccc1-c1ccccc13 (centres undefined),> 100,> 100,> 100,> 100,> 100,> 100,> 100,> 100,> 100,> 100,> 100,> 100,> 100,> 100,> 100,> 100,> 100,> 100,> 100,> 100
O=C(NC(Cc1cnc[nH]1)C(=O)N1CCCC1)C1CCCC1 (centres undefined),> 100,> 100,> 100,> 100,> 100,> 100,> 100,> 100,> 100,> 100,> 100,> 100,> 100,> 100,> 100,,> 100,> 100,> 100,> 100
C[N+](C)(C)c1cc2c(nn1)Nc1ccccc1S2,> 100,> 100,67,> 100,56.9,35.9,63.9,70,43.8,> 100,41.9,52.8,> 100,40,41,62.6,54.8,72,68.9,48.5
CC1CN(c2cc3c(cc2F)c(=O)c(C(=O)O)cn3-c2ccc(F)cn2)CC(C)N1 (centres undefined),> 100,> 100,> 100,> 100,> 100,> 100,> 100,> 100,> 100,> 100,> 100,> 100,> 100,> 100,> 100,> 100,> 100,> 100,> 100,> 100
